Experimental findings from EP1801111A1, “Novel polymorph forms of olmesartan medoxomil” (LEK Pharmaceuticals d.d., priority 2005, dated 2007) are described below.

The conditions of series [1]: 1 n hcl.
Series [2] can be described thus: Hygroscopicity: mass change after exposing to air moisture. It counts as physicochemical. To be noted: for increase of the mass of the sample: after exposing to air moisture for 6 days.

In the case of `CCCc1nc(C(C)(C)O)c(C(=O)OCc2oc(=O)oc2C)n1Cc1ccc(-c2ccccc2-c2nnn[nH]2)cc1` [partially crystalline or amorphous, olmesartan medoxomil], in series [1], the “solubility in 1 N HCI” value was “up to 7 mg/ml”.

For `CCCc1nc(C(C)(C)O)c(C(=O)OCc2oc(=O)oc2C)n1Cc1ccc(-c2ccccc2-c2nnn[nH]2)cc1` [olmesartan medoxomil hemihydrate], the “increase of the mass of the sample” value in series [2] (hemihydrate) was “did not increase”. Also, the “hygroscopicity (in words)” value in series [2] (compared with the prior art substance) is “not hydroscopic”. Moreover, the “solubility in 1 N HCI” value in series [1] is listed as “around 3 mg/ml”.

With `CCCc1nc(C(C)(C)O)c(C(=O)OCc2oc(=O)oc2C)n1Cc1ccc(-c2ccccc2-c2nnn[nH]2)cc1` [prior art substance, olmesartan medoxomil], in series [2], the “increase of the mass of the sample” value was 0,61%. In addition, the “solubility in 1 N HCI” value in series [1] is on record as “approximately 2 mg”.
